These results are taken from patent publication US7521396B2, “Substituted (thioxo)carbonylaminophenyluracils” (Bayer CropScience AG, priority 2002, dated 2009).

As usually defined, the chromatographic logP is a lipophilicity value derived from retention on a column. Read a high chromatographic logP as higher lipophilicity.

Marks after values point to notes of the source that are not given here.

Tested on in the first series: not listed separately
Nature of the series: logP by HPLC on reversed-phase column (C 18), EEC Directive 79/831 Annex V.A8. It is filed as physicochemical.
Settings: not given
For `Cn1c(C(F)(F)F)cc(=O)n(-c2cc(NC(=O)SC3=NCCS3)c(Cl)cc2F)c1=O` [Example 11], the logP entry is recorded as “logP = 3.50^a)”.

Regarding `CCOC(=O)C(C)SC(=O)Nc1cc(-n2c(=O)cc(C(F)(F)F)n(C)c2=O)c(F)cc1Cl` (stereo not drawn) [Example 12], the logP result is “logP = 3.11^a)”.

For the compound `CCOC(=O)CSC(=O)Nc1cc(-n2c(=O)cc(C(F)(F)F)n(C)c2=O)c(F)cc1Cl` [Example 13], the logP entry is “logP = 2.80^a)”.

On to `COC(=O)CSC(=O)Nc1cc(-n2c(=O)cc(C(F)(F)F)n(C)c2=O)c(F)cc1Cl` [Example 14], for which the logP entry is reported as “logP = 2.55^a)”.

For the compound `Cn1c(C(F)(F)F)cc(=O)n(-c2cc(NC(=O)SC3=NCCS3)c(Br)cc2F)c1=O` [Example 16], the logP result was “logP = 3.53^a)”.

Consider `CCOC(=O)C(C)SC(=O)Nc1cc(-n2c(=O)cc(C(F)(F)F)n(C)c2=O)c(F)cc1Br` (stereo not drawn) [Example 17], for which the logP entry is listed as “logP = 3.15^a)”.

Consider `CCOC(=O)CSC(=O)Nc1cc(-n2c(=O)cc(C(F)(F)F)n(C)c2=O)c(F)cc1Br` [Example 18], for which the logP result is “logP = 2.90^a)”.

`COC(=O)CSC(=O)Nc1cc(-n2c(=O)cc(C(F)(F)F)n(C)c2=O)c(F)cc1Br` [Example 19]: the logP entry is given as “logP = 2.59^a)”.

With `COC(=O)[C@@H]1CCCN1C(=O)Nc1cc(-n2c(=O)cc(C(F)(F)F)n(C)c2=O)c(F)cc1Br` [Example 33], the logP entry was “logP = 2.52^a)”.

Regarding `COC(=O)[C@@H]1CCCN1C(=O)Nc1cc(-n2c(=O)cc(C(F)(F)F)n(C)c2=O)c(F)cc1Cl` [Example 34], the logP result was “logP = 2.46^a)”.

Take `CCOC(=O)C1CCCN(C(=O)Nc2cc(-n3c(=O)cc(C(F)(F)F)n(C)c3=O)c(F)cc2Cl)C1` (stereo not drawn) [Example 43]: the logP entry is recorded as “logP = 2.93^a)”.

In the case of `CN1CCN(C(=O)Nc2cc(-n3c(=O)cc(C(F)(F)F)n(C)c3=O)c(F)cc2Cl)C1=O` [Example 51], the logP result is listed as “logP = 2.52^a)”.

Regarding `CCN1CCN(C(=O)Nc2cc(-n3c(=O)cc(C(F)(F)F)n(C)c3=O)c(F)cc2Cl)C1=O` [Example 53], the logP result is given as “logP = 2 2.81^a)”.

Take `CN1CCCN(C(=O)Nc2cc(-n3c(=O)cc(C(F)(F)F)n(C)c3=O)c(F)cc2Cl)C1=O` [Example 56]: the logP entry is “logP = 2.76^a)”.

With `Cn1c(C(F)(F)F)cc(=O)n(-c2cc(NC(=O)N3CCCCO3)c(Cl)cc2F)c1=O` [Example 62], the logP result is “logP = 2.89^a)”.

Regarding `Cn1c(C(F)(F)F)cc(=O)n(-c2cc(NC(=O)N3CCCCO3)c(Br)cc2F)c1=O` [Example 63], the logP result was “logP = 2.96^a)”.

As for `CCON(C)C(=O)Nc1cc(-n2c(=O)cc(C(F)(F)F)n(C)c2=O)c(F)cc1Cl` [Example 68], the logP entry was “logP = 2.99^a)”.

For the compound `CCON(C)C(=O)Nc1cc(-n2c(=O)cc(C(F)(F)F)n(C)c2=O)c(F)cc1Br` [Example 69], the logP entry is on record as “logP = 3.06^a)”.

On to `CCON(CC)C(=O)Nc1cc(-n2c(=O)cc(C(F)(F)F)n(C)c2=O)c(F)cc1Cl` [Example 71], for which the logP result is given as “logP = 3.35^a)”.

On to `CCON(CC)C(=O)Nc1cc(-n2c(=O)cc(C(F)(F)F)n(C)c2=O)c(F)cc1Br` [Example 72], for which the logP result is given as “logP = 3.41^a)”.

In the case of `CCN(OC)C(=O)Nc1cc(-n2c(=O)cc(C(F)(F)F)n(C)c2=O)c(F)cc1Cl` [Example 74], the logP result is listed as “logP = 2.93^a)”.

With `CCN(OC)C(=O)Nc1cc(-n2c(=O)cc(C(F)(F)F)n(C)c2=O)c(F)cc1Br` [Example 75], the logP entry is listed as “logP = 3.01^a)”.

On to `CON(C)C(=O)N(C)c1cc(-n2c(=O)cc(C(F)(F)F)n(C)c2=O)c(F)cc1Cl` [Example 77], for which the logP result is “logP = 2.53^a)”.

Take `Cn1c(C(F)(F)F)cc(=O)n(-c2cc(NC(=O)N3CCC4(CC3)OCCO4)c(Cl)cc2F)c1=O` [Example 84]: the logP result was “logP = 2.29^a)”.

For the compound `Cn1c(C(F)(F)F)cc(=O)n(-c2cc(NC(=O)N3CCC4(CC3)OCCO4)c(Br)cc2F)c1=O` [Example 85], the logP entry is listed as “logP = 2.35^a)”.

`Cn1c(C(F)(F)F)cc(=O)n(-c2cc(NC(=O)N3CCC4(CC3)OCCCO4)c(Cl)cc2F)c1=O` [Example 86]: the logP entry was “logP = 2.29^a)”.

With `Cn1c(C(F)(F)F)cc(=O)n(-c2cc(NC(=O)N3CCC4(CC3)OCCCO4)c(Br)cc2F)c1=O` [Example 87], the logP entry is listed as “logP = 2.35^a)”.

As to `CC(=O)NC1CCN(C(=O)Nc2cc(-n3c(=O)cc(C(F)(F)F)n(C)c3=O)c(F)cc2Cl)C1` (stereo not drawn) [Example 94], the logP entry is listed as “logP = 1.74^a)”.

Turning to `CC(=O)NC1CCN(C(=O)Nc2cc(-n3c(=O)cc(C(F)(F)F)n(C)c3=O)c(F)cc2Br)C1` (stereo not drawn) [Example 95], the logP entry is given as “logP = 1.80^a)”.

In the case of `CCOC(=O)N1CCN(C(=O)Nc2cc(-n3c(=O)cc(C(F)(F)F)n(C)c3=O)c(F)cc2Cl)CC1` [Example 96], the logP result was “logP = 2.43^a)”.

In the case of `CCOC(=O)N1CCN(C(=O)Nc2cc(-n3c(=O)cc(C(F)(F)F)n(C)c3=O)c(F)cc2Br)CC1` [Example 97], the logP entry is listed as “logP = 2.47^a)”.

In the case of `Cn1c(C(F)(F)F)cc(=O)n(-c2cc(NC(=O)N3CCCCCC3)c(Cl)cc2F)c1=O` [Example 98], the logP result was “logP = 3.02^a)”.

On to `Cn1c(C(F)(F)F)cc(=O)n(-c2cc(NC(=O)N3CCCCCC3)c(Br)cc2F)c1=O` [Example 99], for which the logP entry was “logP = 3.10^a)”.

Take `CCOC(=O)C(C)(C)ONC(=O)Nc1cc(-n2c(=O)cc(C(F)(F)F)n(C)c2=O)c(F)cc1Cl` [Example 100]: the logP result is listed as “logP = 3.11^a)”.

On to `CCOC(=O)C(C)(C)ONC(=O)Nc1cc(-n2c(=O)cc(C(F)(F)F)n(C)c2=O)c(F)cc1Br` [Example 101], for which the logP result is reported as “logP = 3.16^a)”.

For `Cn1c(C(F)(F)F)cc(=O)n(-c2cc(NC(=O)N3CCCS3(=O)=O)c(Cl)cc2F)c1=O` [Example 102], the logP entry is “logP = 2.38^a)”.

As to `Cn1c(C(F)(F)F)cc(=O)n(-c2cc(NC(=O)N3CCCS3(=O)=O)c(Br)cc2F)c1=O` [Example 103], the logP result is given as “logP = 2.41^a)”.

In the case of `CCOC(=O)CONC(=O)Nc1cc(-n2c(=O)cc(C(F)(F)F)n(C)c2=O)c(F)cc1Cl` [Example 104], the logP result is on record as “logP = 2.58^a)”.

In the case of `CCOC(=O)CONC(=O)Nc1cc(-n2c(=O)cc(C(F)(F)F)n(C)c2=O)c(F)cc1Br` [Example 105], the logP result was “logP = 2.62^a)”.

`C#CCN(C(=O)N(C)OC)c1cc(-n2c(=O)cc(C(F)(F)F)n(C)c2=O)c(F)cc1Cl` [Example 108]: the logP result is reported as “logP = 2.75^a)”.

Take `CON(C)C(=O)N(c1cc(-n2c(=O)cc(C(F)(F)F)n(C)c2=O)c(F)cc1Cl)S(C)(=O)=O` [Example 109]: the logP result is “logP = 2.56^a)”.

As to `CCN(C(=O)N(C)OC)c1cc(-n2c(=O)cc(C(F)(F)F)n(C)c2=O)c(F)cc1Cl` [Example 111], the logP result is on record as “logP = 2.80^a)”.

`Cn1c(C(F)(F)F)cc(=O)n(-c2cc(NC(=O)N3CCC(O)C3)c(Cl)cc2F)c1=O` (stereo not drawn) [Example 113]: the logP result is given as “logP = 1.72^a)”.

With `Cn1c(C(F)(F)F)cc(=O)n(-c2cc(NC(=O)N3CCC(O)CC3)c(Cl)cc2F)c1=O` [Example 117], the logP entry is recorded as “logP = 1.77^a)”.

On to `Cn1c(C(F)(F)F)cc(=O)n(-c2cc(NC(=O)N3CCC(O)CC3)c(Br)cc2F)c1=O` [Example 118], for which the logP result is “logP = 1.81^a)”.

As to `CC1CN(C(=O)Nc2cc(-n3c(=O)cc(C(F)(F)F)n(C)c3=O)c(F)cc2Cl)CC(C)O1` (stereo not drawn) [Example 119], the logP entry is “logP = 2.50^a)”.

Regarding `CC1CN(C(=O)Nc2cc(-n3c(=O)cc(C(F)(F)F)n(C)c3=O)c(F)cc2Br)CC(C)O1` (stereo not drawn) [Example 120], the logP entry is reported as “logP = 2.55^a)”.

Regarding `CCOC(=O)CN(C)C(=O)Nc1cc(-n2c(=O)cc(C(F)(F)F)n(C)c2=O)c(F)cc1Cl` [Example 121], the logP result is reported as “logP = 2.48^a)”.

`CCOC(=O)CN(C)C(=O)Nc1cc(-n2c(=O)cc(C(F)(F)F)n(C)c2=O)c(F)cc1Br` [Example 122]: the logP entry is on record as “logP = 2.54^a)”.

Turning to `CCOC(=O)COC(=O)Nc1cc(-n2c(=O)cc(C(F)(F)F)n(C)c2=O)c(F)cc1Br` [Example 125], the logP entry is “logP = 2.79^a)”.

Consider `CCOC(=O)COC(=O)Nc1cc(-n2c(=O)cc(C(F)(F)F)n(C)c2=O)c(F)cc1Cl` [Example 126], for which the logP entry is “logP = 2.74^a)”.

With `CCOC(=O)C(C)OC(=O)Nc1cc(-n2c(=O)cc(C(F)(F)F)n(C)c2=O)c(F)cc1Cl` (stereo not drawn) [Example 127], the logP result is listed as “logP = 2.74^a)”.

With `CCOC(=O)C1CCCN(C(=O)Nc2cc(-n3c(=O)cc(C(F)(F)F)n(C)c3=O)c(F)cc2C#N)C1` (stereo not drawn) [Example 133], the logP entry is on record as “logP = 2.70^a)”.

Still in this series, the particulars now being: a) acidic range: 0.1% aqueous phosphoric acid, acetonitrile gradient; 43° C.
`Cn1c(C(F)(F)F)cc(=O)n(-c2cc(NC(=O)NCCC#N)c(Cl)cc2F)c1=O` [Example 15]: the logP entry was “logP = 2.06^a)”.

Turning to `Cn1c(C(F)(F)F)cc(=O)n(-c2cc(NC(=O)N3CCC(=O)CC3)c(Cl)cc2F)c1=O` [Example 92], the logP entry was “logP = 1.93^a)”.

In the case of `Cn1c(C(F)(F)F)cc(=O)n(-c2cc(NC(=O)N3CCC(=O)CC3)c(Br)cc2F)c1=O` [Example 93], the logP result is on record as “logP = 1.97^a)”.

In the case of `C=CCN(C(=O)N(C)OC)c1cc(-n2c(=O)cc(C(F)(F)F)n(C)c2=O)c(F)cc1Cl` [Example 106], the logP result was “logP = 2.96^a)”.

Still in this series, the particulars now being: reversed-phase C18 HPLC column, pH 2.
Take `CCOC(=O)C1CCCN(C(=O)Nc2cc(-n3c(=O)cc(C(F)(F)F)n(C)c3=O)c(F)cc2Br)C1` (stereo not drawn) [Example 1, ethyl 1-[2-bromo-4-fluoro-5-(3-methyl-2,6-dioxo-4-trifluoromethyl-3,6-dihydro-2H-pyrimidin-1-yl)phenylcarbamoyl]piperidine-3-carboxylate]: the chromatographic logP was found to be 2.98.

Another series has as its system weeds. Nature of the series: Post-emergence test (Example B), damage to weeds. It is filed as in vivo. Particulars: test plants of 5-15 cm sprayed, rated after three weeks. On the procedure: To produce a suitable preparation of active compound, 1 part by weight of active compound is mixed with the stated amount of solvent, the stated amount of emulsifier is added and the concentrate is diluted with water to the desired concentration.
Test plants of a height of 5-15 cm are sprayed with the preparation of active compound such that the particular amounts of active compound desired are applied per unit area. The concentration of the spray liquor is chosen such that the particular amounts of active compound desired are applied in 1000 l of water/ha.
After three weeks, the degree of damage to the plants is rated in % damage in comparison to the development of the untreated control.
The figures denote: • 0%=no effect (like untreated control) • 100%=total destruction
In the case of `COC(=O)[C@@H]1CCCN1C(=O)Nc1cc(-n2c(=O)cc(C(F)(F)F)n(C)c2=O)c(F)cc1Br` [Example 33], the “activity against weeds (degree of damage)” value is “strong activity”.

Turning to `COC(=O)[C@@H]1CCCN1C(=O)Nc1cc(-n2c(=O)cc(C(F)(F)F)n(C)c2=O)c(F)cc1Cl` [Example 34], the “activity against weeds (degree of damage)” value is “strong activity”.
